Data as given in patent US10100061B2, “Oxazepine compound and agricultural/horticultural insecticide containing said compound as active ingredient, and method for using the same” (NIHON NOHYAKU CO., LTD., priority 2014, dated 2018).

How the values were obtained:
[1] = test system: Green Peach Aphid (Myzus Persicae); assay: Test of preventive value against green peach aphid (Test Example 1); format: in vivo; conditions: 500 ppm, sprayed over stems and leaves of potted Chinese cabbages, sixth day after spraying
Method: Test of Preventive Value Against Green Peach Aphid (Myzus Persicae)
Chinese cabbages were planted in plastic pots, each with a size of 8 cm in diameter and 8 cm in height, after which green peach aphids were propagated and the number of parasitic insects was examined in each pot. An oxazepine compound or salt thereof expressed by General Formula (I) according to the present invention was dispersed in water and the dispersion was diluted to 500 ppm in the form of a reagent, after which the reagent was sprayed over stems and leaves of potted Chinese cabbages and let dry under wind, and the pots were kept in a greenhouse, and on the sixth day after the reagent was sprayed, the number of green peach aphids living parasitically on each Chinese cabbage was examined and the preventive value was calculated based on the formula below, and judgment was made according to the criteria below. Preventive value=100−{(T×Ca)/(Ta×C)}×100 [Mathematical Formula 1] • Ta: Number of parasitic insects inside the treatment area before spraying • T: Number of parasitic insects inside the treatment area after spraying • Ca: Number of parasitic insects inside the non-treatment area before spraying • C: Number of parasitic insects inside the non-treatment area after spraying Judgment Criteria • A - - - Preventive value: 100% • B - - - Preventive value: 99%˜90% • C - - - Preventive value: 89%˜80% • D - - - Preventive value: 79%˜50%

[2] = test system: Small Brown Planthopper (Laodelphax Striatellus); assay: Test of insecticidal efficacy against small brown planthopper (Test Example 2); format: in vivo; conditions: 500 ppm, rice plants soaked 30 seconds, third-instar larvae, eight days after inoculation; criteria same as in Test Example 1
Source text: Test of Insecticidal Efficacy Against Small Brown Planthopper (Laodelphax Striatellus)

Compound | Preventive value, judgment [1] | Corrected insect mortality, judgment [2]
CCOCN1C(=O)c2nn(-c3cccnc3)cc2Oc2cc(F)ccc21 [8-26] | A to D | A to D
O=C1OCCC1N1C(=O)c2nn(-c3cccnc3)cc2Oc2cc(F)ccc21 (stereo not drawn) [8-31] | A to D | A to D
CC(C(=O)OC(C)(C)C)N1C(=O)c2nn(-c3cccnc3)cc2Oc2cc(F)ccc21 (stereo not drawn) [8-32] | A to D | A to D
O=C1c2nn(-c3cccnc3)cc2Oc2cc(F)ccc2N1CCCCBr [8-34] | A to D | A to D
C=CCN1C(=O)c2nn(-c3cccnc3)cc2Oc2ccc(F)cc21 [8-35] | A to D | A to D
CCCCCCCCCCCCN1C(=O)c2nn(-c3cccnc3)cc2Oc2ccc(F)cc21 [8-37] | A to D | A to D
O=C1c2nn(-c3cccnc3)cc2Oc2ccc(F)cc2N1CCCl [8-38] | A to D | A to D
O=C1c2nn(-c3cccnc3)cc2Oc2ccc(F)cc2N1CCCCBr [8-40] | A to D | A to D
O=C1c2nn(-c3cccnc3)cc2Oc2ccc(F)cc2N1CC1CCCO1 (stereo not drawn) [8-41] | A to D | A to D
COC(CN1C(=O)c2nn(-c3cccnc3)cc2Oc2ccc(F)cc21)OC [8-42] | A to D | A to D
COCN1C(=O)c2nn(-c3cccnc3)cc2Oc2ccc(F)cc21 [8-45] | A to D | A to D
CCOCN1C(=O)c2nn(-c3cccnc3)cc2Oc2ccc(F)cc21 [8-46] | A to D | A to D
CS(=O)(=O)CN1C(=O)c2nn(-c3cccnc3)cc2Oc2ccc(F)cc21 [8-49] | A to D | A to D
O=C1Nc2cc(Cl)ccc2Oc2cn(-c3cccnc3)nc21 [8-54] | A to D | A to D
C#CCN1C(=O)c2nn(-c3cccnc3)cc2Oc2ccc(Cl)cc21 [8-56] | A to D | A to D
O=C1Nc2cc(Br)ccc2Oc2cn(-c3cccnc3)nc21 [8-62] | A to D | A to D
CN1C(=O)c2nn(-c3ccc[n+]([O-])c3)cc2Oc2ccccc21 [9-1] | A to D | A to D
O=C1Nc2ccccc2Oc2c1nn(-c1cccnc1)c2F [9-3] | A to D | A to D

Compound | Preventive value, judgment [1] | Corrected insect mortality, judgment [2]
ClC1=Nc2ccccc2Oc2cn(-c3cccnc3)nc21 [11-1] | A to D | A to D
NC1=Nc2ccccc2Oc2cn(-c3cccnc3)nc21 [11-5] | A to D | A to D
c1cncc(-n2cc3c(n2)C(NC2CC2)=Nc2ccccc2O3)c1 [11-7] | A to D | A to D
ONC1=Nc2ccccc2Oc2cn(-c3cccnc3)nc21 [11-9] | A to D | A to D
CN(C)C1=Nc2ccccc2Oc2cn(-c3cccnc3)nc21 [11-10] | A to D | A to D
C=CCN(CC=C)C1=Nc2cc(F)ccc2Oc2cn(-c3cccnc3)nc21 [11-11] | A to D | A to D
CSCCOC1=Nc2ccc(C(F)(C(F)(F)F)C(F)(F)F)cc2Oc2cn(-c3cccnc3)nc21 [11-17] | A to D | A to D
CSC1=Nc2cc(F)ccc2Oc2cn(-c3cccnc3)nc21 [11-18] | A to D | A to D
CCSC1=Nc2cc(F)ccc2Oc2cn(-c3cccnc3)nc21 [11-19] | A to D | A to D
CN1C(=O)c2nn(-c3cccnc3)cc2Oc2ccncc21 [12-1] | A to D | A to D
CN1C(=O)c2nn(-c3cccnc3)cc2Oc2nccnc21 [13-1] | A to D | A to D
Cc1nn(C)c2c1N(CC#N)C(=O)c1nn(-c3cccnc3)cc1O2 [14-5] | A to D | A to D
O=C1Nc2ccccc2Oc2cn(-c3cccnc3)nc21 [Compound No. 1-1, 2-(pyridine-3-yl)-2H-benzo [b]pyrazolo [3,4-f][1,4]oxazepine-10 (9H)-one] | A to D | A to D
CN1C(=O)c2nn(-c3cccnc3)cc2Oc2ccccc21 [Compound No. 1-2, 9-methyl-2-(pyridine-3-yl)-2H-benzo [b]pyrazolo [3,4-f][1,4]oxazepine-10 (9H)-one] | A to D | A to D
CN1C(=O)c2nn(-c3cccnc3)cc2Oc2cc(F)ccc21 [Compound No. 1-11, 6-fluoro-9-methyl-2-(pyridine-3-yl)-2H-benzo [b]pyrazolo [3,4-f][1,4]oxazepine-10 (9H)-one] | A to D | A to D
N#CCN1C(=O)c2nn(-c3cccnc3)cc2Oc2cc(F)ccc21 [Compound No. 1-13, 2-(6-fluoro-10-oxo-2-(pyridine-3-yl)-2H-benzo [b]pyrazolo [3,4-f][1,4]oxazepine-9 (10H)-yl) acetonitrile] | A to D | A to D
CN1C(=S)c2nn(-c3cccnc3)cc2Oc2ccccc21 [Compound No. 2-2, 9-methyl-2-(pyridine-3-yl)-2H-benzo [b]pyrazolo [3,4-f][1,4]oxazepine-10 (9H)-thione] | A to D | A to D
Fc1ccc2c(c1)NCc1nn(-c3cccnc3)cc1O2 [Compound No. 3-6, 7-fluoro-2-(pyridine-3-yl)-9,10-dihydro-2H-benzo [b]pyrazolo [3,4-f][1,4]oxazepine] | A to D | A to D
